Values after ≈ are worked out from the molar mass of the structure shown.

Experimental findings from ChEMBL document CHEMBL4680273, “Teixobactin: A Paving Stone toward a New Class of Antibiotics?” (2020) are described below.

Common to all, as to assay type: functional
For experiment [1], the system named is Staphylococcus aureus. The experiment in a line: Antibacterial activity against Staphylococcus aureus ATCC 29213.
Experiment [2] deals with Staphylococcus aureus. Kind of experiment: Antibacterial activity against methicillin- resistant Staphylococcus aureus SA86.
A further experiment deals with Pseudomonas aeruginosa. Kind of experiment: Antibacterial activity against Pseudomonas aeruginosa PAO1 incubated for 24 hrs in presence of colistin by Checkerboard assay.
Experiment [3] deals with Staphylococcus aureus. Kind of experiment: Antibacterial activity against Staphylococcus aureus SH1000 incubated for 24 hrs by CLSI-broth microdilution method. To be noted: Staphylococcus aureus, SH1000, read-out: MIC.
Experiment [4] relates to Staphylococcus aureus. Kind of experiment: Antibacterial activity against methicillin resistant Staphylococcus aureus USA300.
The test system of a further experiment is Bacillus spizizenii. Kind of experiment: Antibacterial activity against Bacillus subtilis ATCC 6633 by M07-A9 CLSI method.
The subject of experiment [5] is Staphylococcus aureus. The experiment in a line: Antibacterial activity against methicillin resistant Staphylococcus aureus.
Experiment [6] deals with Bacillus subtilis. Kind of experiment: Antibacterial activity against Bacillus subtilis ATCC 6051 incubated for 16 hrs by UV/Visible absorbance method.
The subject of experiment [7] is Staphylococcus epidermidis. The experiment in a line: Antibacterial activity against Staphylococcus epidermidis ATCC 14990 incubated for 16 hrs by UV/Visible absorbance method.
Experiment [8] deals with Staphylococcus aureus. The experiment in a line: Antibacterial activity against Staphylococcus aureus ATCC 29213 by CLSI-based broth microdilution method. On the technique in general: In broth dilution the organism is exposed to a series of concentrations in liquid medium.
In experiment [9] the test system is Staphylococcus aureus. Kind of experiment: Antibacterial activity against Staphylococcus aureus TH4112 incubated for 16 to 20 hrs by CLSI-based broth microdilution method. To be noted: time 16-20 hrs.
Experiment [10] deals with Staphylococcus aureus. Kind of experiment: Antibacterial activity against methicillin resistant Staphylococcus aureus ATCC 33591 incubated for 24 hrs.
Experiment [11] relates to Staphylococcus aureus. Kind of experiment: Antibacterial activity against Staphylococcus aureus ATCC 29213 incubated for 24 hrs by CLSI-based broth microdilution method.
The test system of experiment [12] is Bacillus subtilis. Kind of experiment: Antibacterial activity against Bacillus subtilis ATCC 6051 incubated for 24 hrs by CLSI based broth microdilution method.

For orientation: MIC means the least concentration at which growth counts as inhibited. On to `CC[C@H](C)[C@H](NC(=O)[C@@H](Cc1ccccc1)NC)C(=O)N[C@@H](CO)C(=O)N[C@H](CCC(N)=O)C(=O)N[C@@H](C(=O)N[C@H](C(=O)N[C@@H](CO)C(=O)N[C@H]1C(=O)N[C@@H](C)C(=O)NC(CCCN)C(=O)N[C@@H]([C@@H](C)CC)C(=O)O[C@H]1C)[C@@H](C)CC)C(C)C` (some centres undefined), for which the MIC is 8 µg/mL (≈ 6.73 µM) against Staphylococcus aureus [1] and 16 µg/mL (≈ 13.5 µM) in the experiment on Staphylococcus aureus [2].
As to `CCCCC1NC(=O)[C@H](CCCNC(=N)N)NC(=O)[C@H](C)NC(=O)[C@H](NC(=O)[C@H](CO)NC(=O)[C@@H](NC(=O)[C@H](NC(=O)[C@@H](CCC(N)=O)NC(=O)[C@H](CO)NC(=O)[C@@H](NC(=O)[C@@H](Cc2ccccc2)NC)[C@@H](C)CC)[C@@H](C)CC)[C@@H](C)CC)[C@H](C)OC1=O` (some centres undefined), the values for the minimum inhibitory concentration (MIC) in the experiment on Pseudomonas aeruginosa and in the experiment on Staphylococcus aureus [3] were 64 µg/mL and 8 µg/mL (≈ 6.43 µM), respectively.
Consider `CC[C@H](C)[C@H](NC(=O)[C@@H](Cc1ccccc1)NC)C(=O)N[C@@H](CO)C(=O)N[C@H](CCC(N)=O)C(=O)N[C@@H](C(=O)N[C@H](C(=O)N[C@@H](CO)C(=O)N[C@H]1C(=O)N[C@@H](C)C(=O)N[C@@H](Cc2ncc[nH]2)C(=O)N[C@@H]([C@@H](C)CC)C(=O)O[C@H]1C)[C@@H](C)CC)[C@@H](C)CC`, for which the MIC against Staphylococcus aureus [4] is 16 µg/mL (≈ 13.1 µM); against Bacillus spizizenii, 8 µg/mL (≈ 6.53 µM); against Staphylococcus aureus [5] it was 2 µg/mL (≈ 1.63 µM).
With `CC[C@H](C)[C@H](NC(=O)[C@@H](Cc1ccccc1)NC)C(=O)N[C@@H](CO)C(=O)N[C@H](CCC(N)=O)C(=O)N[C@@H](C(=O)N[C@H](C(=O)N[C@@H](CO)C(=O)N[C@H]1C(=O)N[C@@H](C)C(=O)NC(CCCN)C(=O)N[C@@H](C(C)C)C(=O)O[C@H]1C)[C@@H](C)CC)[C@@H](C)CC` (some centres undefined), the minimum inhibitory concentration (MIC) against Staphylococcus aureus [1] and against Staphylococcus aureus [2] was 8 µg/mL (≈ 6.73 µM) in each case.
Consider `CC[C@@H](C)[C@H](NC(=O)[C@H](CCC(N)=O)NC(=O)[C@@H](CO)NC(=O)[C@H](NC(=O)[C@H](Cc1ccccc1)NC)[C@H](C)CC)C(=O)N[C@@H](C(=O)N[C@H](CO)C(=O)N[C@@H]1C(=O)N[C@H](C)C(=O)N[C@H](CCCNC(=N)N)C(=O)N[C@H]([C@H](C)CC)C(=O)O[C@@H]1C)[C@H](C)CC`, for which the MIC (with Bacillus subtilis [6]; in experiment [7]) was 2 µg/mL (≈ 1.61 µM) in each case.
Turning to `CC[C@H](C)[C@H](NC(=O)[C@@H](Cc1ccccc1)NC)C(=O)N[C@@H](CO)C(=O)N[C@H](CCC(N)=O)C(=O)N[C@@H](C(=O)N[C@H](C(=O)N[C@@H](CO)C(=O)N[C@H]1C(=O)N[C@@H](C)C(=O)N[C@@H](CCCNC(N)=O)C(=O)N[C@@H]([C@@H](C)CC)C(=O)O[C@H]1C)[C@@H](C)CC)[C@@H](C)CC`, in the experiment with Staphylococcus aureus [4], the lowest concentration to inhibit growth (MIC) was 16 µg/mL (≈ 12.8 µM).
Turning to `CC[C@H](C)[C@H](NC(=O)[C@H](N)Cc1ccccc1)C(=O)N[C@@H](CO)C(=O)N[C@H](CCC(N)=O)C(=O)N[C@@H](C(=O)N[C@H](C(=O)N[C@@H](CO)C(=O)N[C@H]1C(=O)N[C@@H](C)C(=O)N[C@@H](CCCNC(=N)N)C(=O)N[C@@H]([C@@H](C)CC)C(=O)O[C@H]1C)[C@@H](C)CC)[C@@H](C)CC`, the minimal inhibitory concentration (MIC) against Staphylococcus aureus [8] worked out at 2 µg/mL (≈ 1.63 µM).
Same read-out and setting: to `CC[C@H](C)[C@H](NC(=O)[C@H](NC(=O)[C@@H](CCC(N)=O)NC(=O)[C@H](CO)NC(=O)[C@@H](NC(=O)[C@H](Cc1ccccc1)N(C)C)[C@@H](C)CC)[C@@H](C)CC)C(=O)N[C@@H](CO)C(=O)N[C@H]1C(=O)N[C@@H](C)C(=O)N[C@@H](CCCNC(=N)N)C(=O)N[C@@H]([C@@H](C)CC)C(=O)O[C@H]1C` belongs 32 µg/mL (≈ 25.4 µM).
On to `CC[C@H](C)[C@@H]1NC(=O)[C@H](C[C@H]2CNC(=N)N2)NC(=O)[C@H](C)NC(=O)[C@H](NC(=O)[C@H](CO)NC(=O)[C@@H](NC(=O)[C@H](NC(=O)[C@@H](CCC(N)=O)NC(=O)[C@H](CO)NC(=O)[C@@H](NC(=O)[C@@H](Cc2ccccc2)NC)[C@@H](C)CC)[C@@H](C)CC)[C@@H](C)CC)CNC1=O`, for which the MIC with Staphylococcus aureus [9] was found to be 0.185 µg/mL (≈ 0.151 µM).
Take `CC[C@H](C)[C@H](NC(=O)[C@@H](Cc1ccccc1)NC)C(=O)N[C@@H](CO)C(=O)N[C@H](CCC(N)=O)C(=O)N[C@@H](C(=O)N[C@H](C(=O)N[C@@H](C)C(=O)N[C@H]1C(=O)N[C@@H](C)C(=O)N[C@@H](CCCNC(=N)N)C(=O)N[C@@H]([C@@H](C)CC)C(=O)O[C@H]1C)[C@@H](C)CC)[C@@H](C)CC`: the minimum inhibitory concentration (MIC) against Staphylococcus aureus [10] and in the experiment on Staphylococcus aureus [8] was 32 µg/mL (≈ 26 µM) throughout.
For the compound `CC[C@H](C)[C@H](NC(=O)[C@@H](Cc1ccccc1)NC)C(=O)N[C@@H](CCCCN)C(=O)N[C@H](CCC(N)=O)C(=O)N[C@@H](C(=O)N[C@H](C(=O)N[C@@H](CO)C(=O)N[C@H]1C(=O)N[C@@H](C)C(=O)N[C@@H](CCCNC(=N)N)C(=O)N[C@@H]([C@@H](C)CC)C(=O)O[C@H]1C)[C@@H](C)CC)[C@@H](C)CC`, the minimum inhibitory concentration (MIC) against Staphylococcus aureus [11] was 4 µg/mL (≈ 3.11 µM); against Bacillus subtilis [12] it was 0.25 µg/mL (≈ 0.194 µM).
